A word on the IC50: it is the concentration at which inhibition is half-maximal. A higher IC50 goes with a need for much substance. For orientation: Ki means the equilibrium dissociation constant of an inhibitor or competing ligand from its target.

The subject of assay [1] is glycine site coupled to the NMDA ionophor complex. To be noted: literature, in words; cited from earlier work.
Assay [2] has as its target T1, glycine site of the NMDA receptor complex (Rattus norvegicus, UniProt P35439).
T1 construct: thawed rat cerebral cortical membrane homogenate; from tissue; host or cells: rat cerebral cortical membrane homogenate
The assay is described as follows: [3H]-glycine binding (Test 1). The following applies: displacement of 50% of specific [3H]-glycine binding; rat cerebral cortical membrane homogenate, pH 7.1, 0° C., 10 min. The procedure: The glycine site binding activity of these compounds of the present invention can be illustrated by determining their capability for displacing radioactively labelled glycine from the glycine site.
The displacement activity of the compounds may be shown by determining the IC50 value which represents the concentration (μM) which causes a displacement of 50% of the specific binding of [^3 H]-glycine.
^3 H]-glycine binding (Test 1)
1 ml of thawed rat cerebral cortical membrane homogenate in HEPES-Tris (5 mM) and MgCl2 (1 mM) pH 7.1 were incubated at 0° C. for 10 min. with […] and the test compound and buffer. Non-specific binding was determined by incubating with D-serine (1 mM final concentration). The binding reaction was terminated by centrifugation at 15,000 ×g at 4° C. followed by washing of the pellet with three times 3 ml of ice-cold buffer. Bound radioactivity was measured by scintillation counting. IC50 was determined by Hill analysis of at least four concentrations of test compound.

Assay [3] has as its target T1, glycine site of the NMDA receptor complex. The experiment in a line: Antagonism of glycine enhanced [3H]-MK-801 binding (Test 2). To be noted: dissociation constant of receptor-antagonist complex, Schild analysis; rat cerebral membrane homogenate, pH 7.40, 23° C., 60 min, 1 nM [3H]-MK-801, 300 nM glutamate. As for the experimental part:
The glycine antagonism is measured by determining the Ki value which represents the dissociation constant (μM) of the receptor-antagonist complex.
Antagonism enhanced [^3 H]-MK-801 binding (Test 2)
1 ml of thawed and extensively washed rat cerebral membrane homogenate in HEPES-NaOH (20 mM) pH 7.40 were incubated at 23° C. for 60 min. with 25μl[^3 H]-MK-801 (1 nM final concentration), 25 μl glutamate (300 nM final concentration), test compound in concentrations corresponding to 0, 0.5, 2 and 5 times the IC50 value from the [^3 H]-glycine binding assay (test 1) for each concentration of glycine (10; 100; 1,000; 10,000 and 100,000 nM final concentration). The binding reaction was terminated by adding 5 ml of ice- cold buffer followed by rapid filtration through Whatman GF/C glass fiber filters and 5 ml wash with ice-cold buffer. Bound radioactivity was measured by scintillation counting. Ki values were determined by Schild analysis of the data using
log(dosis ration-1)=log[Inhibitor]-log(Ki)

Assay [4] concerns NMDA stimulated [3H]-GABA release from cultured mouse cerebral cortex interneurons. The experiment in a line: Inhibition of NMDA stimulated [3H]-GABA release from cultured mouse cerebral cortex interneurons (Test 3). The following applies: inhibits 50% of NMDA induced [3H]-GABA release, 3 μg/ml NMDA, 37° C. The format is cell-based. The source says: The NMDA antagonistic properties of the compounds is illustrated by determining their capability to antagonize NMDA stimulated [^3 H]-GABA release from cultured mouse cortex neurons. The NMDA antagonistic activity of the compounds may be shown by determining the IC50 value, which represents the concentration (μM) which inhibits 50% of NMDA induced [^3H]-GABA release.
Inhibition of NMDA stimulated [^3 H]-GABA release from cultured mouse cerebral cortex interneurons (Test 3)
Release experiments are performed using the model described by Drejer et al. (Life Sci. 38, 2077 (1986)). To cerebral cortex interneurons cultured in petri dishes (30 mm) are added 100 μg/ml 3-vinyl-GABA one hour before the experiment in order to inhibit degradation of GABA in the neurons. 30 min. before the experiment 5 μCi [^3 H]-GABA added to each culture and after this preloading period the cells are washed twice with HEPES buffered saline (HBS) containing 10 mM HEPES, 135 mM NaCl, 5 mM KCl, 0.6 mM MgSO4, 1.0 mM CaCl2 and 6 mM D-glucose; pH 7 and placed in a superfusion system. This system consists of a peristaltic pump continuously delivering thermostated 37° C. superfusion medium from a reservoir to the top of a slightly tilted petri dish. The cell monolayer at the bottom of the dish is covered with a piece of nylon mesh to facilitate dispersion of medium over the cell layer. The medium is continuously collected from the lower part of the dish and delivered to a fraction collector. Initially, the cells are superfused with HBS for 15 min. (flow rate 2 ml/min.). Then cells are stimulated for 30 sec. every 4 min. by changing the superfusion medium from HBS to a corresponding medium containing NMDA and antagonist according to the following scheme:
Stimulation no. 1: 3 μg/ml NMDA
Stimulation no. 2: 3 μg/ml NMDA +0.3 μg/ml antagonist
Stimulation no. 3: 3 μg/ml NMDA +3.0 μg/ml antagonist
The release of [^3 H]-GABA in the presence of NMDA is corrected for the mean basal release before and after stimulation. The stimulated release in the presence of antagonist is expressed relative to the stimulated release by NMDA alone and the IC50 value is calculated.

For the molecule `N#Cc1cc2[nH]c(=O)c(=O)[nH]c2cc1[N+](=O)[O-]` [CNQX, 6-cyano-7-nitroquinoxaline 2,3-dione], the “activity at the glycine site” value in assay [1] was “weak antagonists”. As to `C[C@@H](N)C(=O)O` [D-alanine], the “activity at the glycine site” value in assay [1] is recorded as “strong agonist activity”. As for `N[C@@H]1CONC1=O` [D-cycloserine], in assay [1], the “activity at the glycine site” value is on record as “partial agonists”. Take `N[C@H](CO)C(=O)O` [D-serine]: the “activity at the glycine site” value in assay [1] was “strong agonist activity”. In the case of `O=c1[nH]c2sc3ccc(F)cc3c2[nH]c1=O` [Example 1, 8-Fluoro[1]benzothieno[2,3-b]pyrazine-2,3(1H,4H)-dione], the IC50 in assay [2] is 52 nM; in assay [4] it was 39 nM. The Ki in assay [3] stood at 8 nM. Taken in the same sequence, the figures for `O=c1[nH]c2sc3ccc(Cl)cc3c2[nH]c1=O` [Example 2, 8-Chloro[1] benzothieno[2,3-b]pyrazine-2,3(1H,4H)-dione] were 56 nM, 11 nM and 40 nM. The corresponding values for `O=c1[nH]c2sc3ccccc3c2[nH]c1=O` [Example 3, [1]Benzothieno[2,3-b]pyrazine-2,3(1H,4H)-dione] are 284 nM, 85 nM and 208 nM.

`O=c1[nH]c2sc3ccc(Br)cc3c2[nH]c1=O` [Example 4, 8-Bromo[1]benzothieno[2,3-b]pyrazine-2,3(lH,4H)-dione]: the IC50 in assay [2] came to 69 nM. Also, the inhibition constant (Ki) in assay [3] worked out at 18 nM. `O=c1[nH]c2sc3cc(Cl)ccc3c2[nH]c1=O` [Example 5, 7-Chloro[1]benzothieno[2,3-b]pyrazine-2,3(1H,4H)-dione]: in assay [2], the IC50 was found to be 6000 nM.

Turning to `O=c1[nH]c2sc3c(Cl)cc(Cl)cc3c2[nH]c1=O` [Example 7, 6,8-Dichloro[1]benzothieno[2,3-b]pyrazine-2,3(1H,4H)dione], the 50% inhibitory concentration (IC50) in assay [2] was 312 nM; in assay [4], 68 nM. With `O=C(O)c1cc(O)c2ccc(Cl)cc2n1` [Example 7-Cl-Kyn, 7-chlorokynurenic acid, reference compound], the IC50 was found to be 1400 nM in assay [2] and 1300 nM in assay [4]. The Ki in assay [3] is 710 nM. For the same molecule, the “activity at the glycine site” value in assay [1] was “quite strong antagonists”. Take `O=c1[nH]c2sc3ccc(I)cc3c2[nH]c1=O` [Example 8, 8-Iodo[1]benzothieno[2,3-b]pyrazine-2,3(1H,4H)-dione]: the IC50 in assay [2] came out at 1000 nM; in assay [4] it was 112 nM.

In assay [2], `O=c1[nH]c2sc3ccc(C(F)(F)F)cc3c2[nH]c1=O` [Example 9, 8-Trifluoromethyl[1]benzothieno[2,3-b]pyrazine-2,3-(1H, 4H)-dione] yielded an IC50 of 7000 nM. On the same count and under the same terms, the figure for `COc1cccc2c1sc1[nH]c(=O)c(=O)[nH]c12` [Example 10, 6-Methoxy[1]benzothieno[2,3-b]pyrazine-2,3(lH,4H)-dione] is 10800 nM; for `COc1ccc2c(c1)sc1[nH]c(=O)c(=O)[nH]c12` [Example 11, 7-Methoxy[1]benzothieno[2,3-b]pyrazine-2,3(lH,4H)-dione] it is 15000 nM. In assay [2], `O=c1[nH]c2sc3c(Cl)cccc3c2[nH]c1=O` [Example 12, 6-Chloro[1]benzothieno[2,3-b]pyrazine-2,3(lH,4H)-dione] registered an IC50 of 180 nM. Moreover, in assay [3], the inhibition constant (Ki) worked out at 41 nM. On to `O=c1[nH]c2sc3c(F)cccc3c2[nH]c1=O` [Example 13, 6-Fluoro[1]benzothieno[2,3-b]pyrazine-2,3(lH,4H)-dione], for which the IC50 in assay [2] was determined as 262 nM. `O=c1[nH]c2sc3cc(Br)c(F)cc3c2[nH]c1=O` [Example 14, 7-Bromo-8-fluoro[1]benzothieno[2,3-b]pyrazine-2,3-(1H,4H)-dione]: the IC50 in assay [2] was 540 nM. As to `NC1CCN(O)C1=O` (centres unmarked) [HA-966, 3-amino-1-hydroxy-2-pyrrolidone, reference compound], the values for the IC50 in assay [2] and in assay [4] were 13000 nM and 25000 nM, respectively. The Ki in assay [3] was 16000 nM. For the same molecule, the “activity at the glycine site” value in assay [1] is “weak antagonists”.

(Values after US5182279A, “Benzothienopyrazinedione compounds and their preparation and use” (Novo Nordisk A/S, priority 1990, dated 1993).)
